From ChEMBL document CHEMBL1142617, “Mycalamides C and D, cytotoxic compounds from the marine sponge Stylinos n. species” (J Nat Prod, 2000) come the findings set out here.

Converted amounts (≈) assume the structure as drawn.

The experiment deals with P388. Description: Cytotoxicity against mouse P388 cells. It is filed as functional, cell-based.
As a reminder, the IC50 is the concentration that gives 50% inhibition. A higher IC50 goes with a need for much substance. `C=C1C[C@](OC)([C@H](O)C(=O)NC[C@H]2O[C@H](CO)C(C)(C)[C@H](O)[C@H]2O)O[C@H](C)[C@@H]1C` [MYCALAMIDE C] gave a 50% inhibitory concentration (IC50) of 0.095 µg/mL (≈ 0.228 µM).

In the case of `C=C1C[C@](OC)([C@H](O)C(=O)N[C@H]2OCO[C@H]3[C@@H]2O[C@H](C[C@H](O)CO)C(C)(C)[C@@H]3O)O[C@H](C)[C@@H]1C` [MYCALAMIDE D], half-maximal inhibition (IC50) was put at 0.035 µg/mL (≈ 0.0715 µM). In turn, `C=C1C[C@](OC)([C@H](O)C(=O)N[C@@H]2OCO[C@H]3[C@@H]2O[C@H](CO)C(C)(C)[C@@H]3OC)O[C@H](C)[C@@H]1C` [THEOPEDERIN E] had an IC50 of 0.0009 µg/mL (≈ 0.00196 µM). Compared with the last compound, the IC50 is about 39-fold lower. `C=C1C[C@](OC)([C@H](O)C(=O)N[C@H]2OCO[C@H]3[C@@H]2O[C@H](C[C@H](O)CO)C(C)(C)[C@@H]3OC)O[C@H](C)[C@@H]1C` [MYCALAMIDE A] registered an IC50 of 0.0011 µg/mL (≈ 0.00218 µM).
